Test results: patent publication US20060020029A1, “Pharmaceutical compositions from ethnobotanicals” (priority 2004, published 2006)
≈ marks a conversion by molar mass, not a printed value.

Experiments:
[1] = Stability in methanol (HPLC); type: physicochemical
Procedure: The stability of 3,5 Dicaffeoyl-Quinic Acid (3,5-DCQA) was first evaluated in methanol. 3.8 mg 3,5-DCQA was dissolved in 0.2375 ml MeOH (conc.=16 mg/ml), and then diluted as ½, ¼ and ⅛ dilution, respectively. All samples were subjected to HPLC in 0 Day, 1 Day, 2 Day and 4 Day, and the Area% of 3,5-DCQA was calculated.

RSV-Long = experiment: Time of addition, CPE assay; type: cell-based, respiratory syncytial virus; settings: for EC50, time of addition: Hep-2; for EC50: estimated FW-516
Procedure: Determine the Time of Addition for EB Fractions. […] This activity is related to the life cycle of the virus and the step in the cycle where the compounds act. In this example, experiments were performed to investigate the effect of the time of addition of EB fractionated products on anti-RSV activity.
Mechanism of action studies were performed as follows. Mechanism of action studies were performed using CJ4-16-4 in a CPE assay with Hep-2 cells.

[2] = system: Influenza A-Shangdong/09/93 (H3N2); experiment: CPE assay, influenza A specificity; type: cell-based, influenza type A
Procedure: (§1) To determine whether the fractions are specific RSV inhibitors rather than general antiviral agents, the inventors tested them against influenza type A/Shangdong/09/93 (H3N2), herpes simplex type 1 (MacItyre), and herpes simplex type 2 (MS) using the CPE assay system.
(§2) CJ4-16-4 was tested using influenza type A, herpes simplex virus type 1, and herpes simplex virus type 2 using the CPE assay with MDCK or Vero cells.

RSV (Long strain) = experiment: CPE assay, RSV-Long in Hep-2 cells; type: cell-based, respiratory syncytial virus; settings: Hep-2 cells, CPE assay; for EC50: μM using the estimated FW-516
RSV-A6 57754 = experiment: CPE assay, RSV-A6 57754 in Hep-2 cells
Procedure: The cell line was propagated in MEM supplemented with 10% heat-inactivated fetal bovine serum (FBS) containing 100 μg/ml of antibiotics (streptomycin/penicillin). […] The overnight medium (MEM containing 10% FBS) was removed, and wells were rinsed twice with 1× phosphate buffer saline (PBS, 200 μl) before adding 10×TCID50 of RSV suspension in fresh medium (MEM plus 2% FBS) to each well, except for cell only wells. […] CellTiter 96 Aqueous Non-Radioactive Cell Proliferation Assay (Promega) was used to monitor the antiviral activity following the manufacturer's instruction. After incubation, the cells were rinsed twice with 200 μl of 1×PBS prior to the addition of 100 μl of fresh medium (MEM plus 10% FBS). […] The extent of cell viability was measured at 490 nm using an ELISA reader, and the absorbance was used to calculate percent inhibition. Antiviral activity of each EB fraction or ribavirin is expressed as IC50, which represents the concentration of the test substance required to reduce the virus infection (as measured by the destruction of the host cells) by 50%.
Hep-2 cells were used in the CPE assay to determine anti-RSV properties.

MDCK cells = experiment: Cytotoxicity in MDCK cells
[3] = Stability in DMSO / water (HPLC); type: physicochemical
Procedure: Next, the stability of 3,5-DCQA was evaluated in various concentrations of DMSO. 5.2 mg 3,5-DCQA was dissolved in 0.208 ml DMSO (conc.=25 mg/ml), and then diluted with water as 40% DMSO in water solution, 20% DMSO in water solution, and 10% DMSO in water solution, respectively. All samples were subjected on HPLC in 0 Day, 1 Day, 2 Day and 4 Day, and the Area % of 3,5-DCQA was calculated.
In the presence of water, 3,5-DCQA was converted into 4,5-dicaffeoylquinic acid (4,5-DCQA), as observed using HPLC. HPLC analysis of 3,5-DCQA in DMSO and H2O (conc.=2.5 mg/ml) at 0 day, 2 Day and 4 Day indicated a progressive degradation of 3,5-DCQA. By the forth day in 10% DMSO in H2OP, over 11% of 3,5-DCQA was changed into 4,5-DCQA.

[4] = system: RSV-Long (Cotton Rat adapted strain); experiment: CPE assay, RSV-Long cotton rat adapted strain; type: cell-based, respiratory syncytial virus
[5] = system: Herpes simplex virus type 1 (MacIntyre strain); experiment: CPE assay, HSV-1 specificity; type: cell-based
Procedure: as §1, §2

RSV B = experiment: CPE assay, RSV-B in Hep-2 cells; type: cell-based, respiratory syncytial virus
[6] = Stability in increasing concentrations of water (HPLC); type: physicochemical; settings: for Area % of 3,5-DCQA (HPLC): Table 24 (in H2O)
Procedure: The rate of degradation of 3,5-DCQA was again tested in increasing concentrations of water. 5.4 mg 3,5-DCQA was dissolved in 0.266ml DMSO (conc.=20.3 mg/ml), and then diluted with water to ½, ¼ and ⅛ dilution, respectively. All samples were subjected on HPLC in 0 Day, 1 Day, 2 Day and 4 Day, and Area % of 3,5-DCQA was calculated.

[7] = CPE assay with MDCK or Vero cells

## O=C(/C=C/c1ccc(O)c(O)c1)OC1CC(O)(C(=O)O)CC(OC(=O)/C=C/c2ccc(O)c(O)c2)C1O (stereo not drawn) [CJ4-16-4, 3,5-di-O-caffeoylquinic acid]
[1]; Stock (16 mg/ml), 0 Day
  Area % of 3,5-DCQA (HPLC): 97.40 Area%
[1]; Stock (16 mg/ml), 1 Day
  Area % of 3,5-DCQA (HPLC): 97.16 Area%
[1]; Stock (16 mg/ml), 2 Day
  Area % of 3,5-DCQA (HPLC): 96.42 Area%
[1]; Stock (16 mg/ml), 4 Day
  Area % of 3,5-DCQA (HPLC): 95.39 Area%
[1]; ¼ dilution, 2 Day
  Area % of 3,5-DCQA (HPLC): 96.65 Area%
[1]; ¼ dilution, 4 Day
  Area % of 3,5-DCQA (HPLC): 95.88 Area%
[1]; ½ dilution, 2 Day
  Area % of 3,5-DCQA (HPLC): 97.03 Area%
[1]; ½ dilution, 4 Day
  Area % of 3,5-DCQA (HPLC): 95.66 Area%
[1]; ⅛ dilution, 0 Day
  Area % of 3,5-DCQA (HPLC): 97.32 Area%
[1]; ⅛ dilution, 1 Day
  Area % of 3,5-DCQA (HPLC): 96.84 Area%
[1]; ⅛ dilution, 2 Day
  Area % of 3,5-DCQA (HPLC): 94.44 Area%
[1]; ⅛ dilution, 4 Day
  Area % of 3,5-DCQA (HPLC): 94.27 Area%
RSV-Long; 0-Hr-Post-infection
  EC50, time of addition: 0.051 µg/mL
  EC50: 99 nM
RSV-Long; 2-Hr-Post-infection
  EC50, time of addition: 0.036 µg/mL
  EC50: 70 nM
RSV-Long; 4-Hr-Post-infection
  EC50, time of addition: 0.039 µg/mL
  EC50: 76 nM
RSV-Long; 6-Hr-Post-infection
  EC50, time of addition: 0.043 µg/mL
  EC50: 83 nM
RSV-Long; 8-Hr-Post-infection
  EC50, time of addition: 0.039 µg/mL
  EC50: 76 nM
RSV-Long; 24-Hr-Post-infection
  EC50, time of addition: 0.069 µg/mL
  EC50: 130 nM
Vero cells
  CC50: > 400000 nM
  CC50, Vero: > 200 µg/mL
[2]
  activity against Influenza A (in words): inactive
[2]; [7]
  EC50, Influenza A-Shangdong/09/93 (H3N2): > 50 µg/mL
[2]; μM using the estimated FW-516
  EC50: > 100 µM
RSV (Long strain)
  EC50, RSV-Long: 0.035 µg/mL (≈ 0.0678 µM)
  EC50: 0.068 µM
RSV (Long strain); listed as 3,5 dicaffeoyl-quinic acid
  EC50: ~0.068 µM
RSV (Long strain); listed as IV
  EC50: 0.068 µM
RSV-A6 57754; Hep-2 cells, CPE assay
  EC50, RSV-A6 57754: 0.08 µg/mL (≈ 0.155 µM)
RSV-A6 57754; read-out: EC50, RSV-A6 57754, μM using the estimated FW-516
  EC50: 0.16 µM
MDCK cells; isolated compounds
  CC50, MDCK: > 200 µg/mL
MDCK cells; read-out: CC50, MDCK, μM using the estimated FW-516
  CC50: > 400 µM
[3]; 10% DMSO in H2O (2.5 mg/ml), fourth day
  3,5-DCQA changed into 4,5-DCQA: over 11%
[3]; 10% DMSO in H2O, 0 Day
  Area % of 3,5-DCQA (HPLC): 97.25 Area %
[3]; 10% DMSO in H2O, 1 Day
  Area % of 3,5-DCQA (HPLC): 93.60 Area %
[3]; 10% DMSO in H2O, 2 Day
  Area % of 3,5-DCQA (HPLC): 89.50 Area %
[3]; 10% DMSO in H2O, 4 Day
  Area % of 3,5-DCQA (HPLC): 86.01 Area %
[3]; 20% DMSO in H2O, 1 Day
  Area % of 3,5-DCQA (HPLC): 94.56 Area %
[3]; 20% DMSO in H2O, 2 Day
  Area % of 3,5-DCQA (HPLC): 91.91 Area %
[3]; 20% DMSO in H2O, 4 Day
  Area % of 3,5-DCQA (HPLC): 89.08 Area %
[3]; 40% DMSO in H2O, 1 Day
  Area % of 3,5-DCQA (HPLC): 96.33 Area %
[3]; 40% DMSO in H2O, 2 Day
  Area % of 3,5-DCQA (HPLC): 94.72 Area %
[3]; 40% DMSO in H2O, 4 Day
  Area % of 3,5-DCQA (HPLC): 93.90 Area %
[3]; 100% DMSO (25 mg/ml), 0 Day
  Area % of 3,5-DCQA (HPLC): 97.28 Area %
[3]; 100% DMSO (25 mg/ml), 1 Day
  Area % of 3,5-DCQA (HPLC): 97.34 Area %
[3]; 100% DMSO (25 mg/ml), 2 Day
  Area % of 3,5-DCQA (HPLC): 97.15 Area %
[3]; 100% DMSO (25 mg/ml), 4 Day
  Area % of 3,5-DCQA (HPLC): 97.09 Area %
[3]; 100% DMSO, up to 4 Day
  degradation in 100% DMSO (in words): No statistically significant degradation
[4]; Hep-2 cells, CPE assay
  EC50, RSV-Long (Cotton Rat adapted strain): 1.4 µg/mL (≈ 2.71 µM)
[4]; μM using the estimated FW-516
  EC50: 2.7 µM
[5]
  activity against HSV-1 (in words): inactive
[5]; [7]
  EC50, Herpes simplex virus type 1 (MacIntyre strain): > 50 µg/mL
[5]; μM using the estimated FW-516
  EC50: > 100 µM
RSV B; Hep-2 cells, CPE assay
  EC50, RSV-B (Washington): 0.086 µg/mL (≈ 0.167 µM)
RSV B; μM using the estimated FW-516, read-out: EC50, RSV-B (Washington)
  EC50: 0.167 µM
Hep-2 cells
  CC50: > 400000 nM
  CC50, Hep 2: > 200 µg/mL
  cytotoxicity in Hep-2 cells (in words): no significant cytotoxicity
[6]; Stock (20.3 mg/ml), 0 Day
  Area % of 3,5-DCQA (HPLC): 97.05 Area %
[6]; Stock (20.3 mg/ml), 1 Day
  Area % of 3,5-DCQA (HPLC): 96.09 Area %
[6]; Stock (20.3 mg/ml), 2 Day
  Area % of 3,5-DCQA (HPLC): 93.94 Area %
[6]; Stock (20.3 mg/ml), 4 Day
  Area % of 3,5-DCQA (HPLC): 91.90 Area %
[6]; ¼ dilution with water, 1 Day
  Area % of 3,5-DCQA (HPLC): 92.79 Area %
[6]; ¼ dilution with water, 2 Day
  Area % of 3,5-DCQA (HPLC): 91.06 Area %
[6]; ¼ dilution with water, 4 Day
  Area % of 3,5-DCQA (HPLC): 88.14 Area %
[6]; ½ dilution with water, 1 Day
  Area % of 3,5-DCQA (HPLC): 94.62 Area %
[6]; ½ dilution with water, 2 Day
  Area % of 3,5-DCQA (HPLC): 92.71 Area %
[6]; ½ dilution with water, 4 Day
  Area % of 3,5-DCQA (HPLC): 90.20 Area %
[6]; ⅛ dilution with water, 0 Day
  Area % of 3,5-DCQA (HPLC): 96.91 Area %
[6]; ⅛ dilution with water, 1 Day
  Area % of 3,5-DCQA (HPLC): 92.60 Area %
[6]; ⅛ dilution with water, 2 Day
  Area % of 3,5-DCQA (HPLC): 89.02 Area %
[6]; ⅛ dilution with water, 4 Day
  Area % of 3,5-DCQA (HPLC): 85.55 Area %
[6]; fourth day in solution
  3,5-DCQA changed into 4,5-DCQA: over 11%
